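GI50 marks 50% less growth. TGI is the concentration that stops growth completely.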
Tests used:
Experiment in all cases: inhibition of tumour cell growth, NCI panel, 384-well format
SF-295 CNS = tested on: SF-295 CNS
HL-60(TB) leukemia = tested on: HL-60(TB) leukemia
NCI-H226 lung = tested on: NCI-H226 lung
NCI-H522 lung = tested on: NCI-H522 lung
U251 glioblastoma = tested on: U251 glioblastoma
OVCAR-5 ovarian = tested on: OVCAR-5 ovarian
SF-268 CNS = tested on: SF-268 CNS
MCF7 breast = tested on: MCF7 breast
NCI/ADR-RES ovarian = tested on: NCI/ADR-RES ovarian
CAKI-1 renal = tested on: CAKI-1 renal
MOLT-4 leukemia = tested on: MOLT-4 leukemia
SR leukemia = tested on: SR leukemia
OVCAR-4 ovarian = tested on: OVCAR-4 ovarian
MDA-MB-468 breast = tested on: MDA-MB-468 breast
MDA-MB-435 melanoma = tested on: MDA-MB-435 melanoma
HCC-2998 colon = tested on: HCC-2998 colon
SK-MEL-5 melanoma = tested on: SK-MEL-5 melanoma
LOX IMVI melanoma = tested on: LOX IMVI melanoma
NCI-H322M lung = tested on: NCI-H322M lung
UO-31 renal = tested on: UO-31 renal
NCI-H460 NSCLC = tested on: NCI-H460 NSCLC
ACHN renal = tested on: ACHN renal
T-47D breast = tested on: T-47D breast
IGROV1 ovarian = tested on: IGROV1 ovarian
RPMI-8226 leukemia = tested on: RPMI-8226 leukemia
SF-539 CNS = tested on: SF-539 CNS
BT-549 breast = tested on: BT-549 breast
HS 578T breast = tested on: HS 578T breast
SW-620 colon = tested on: SW-620 colon
HCT-116 colon = tested on: HCT-116 colon
COLO 205 colon = tested on: COLO 205 colon
UACC-62 melanoma = tested on: UACC-62 melanoma
SNB-19 CNS = tested on: SNB-19 CNS
HOP-62 NSCLC = tested on: HOP-62 NSCLC
A549 NSCLC = tested on: A549 NSCLC
MDA-MB-231 breast = tested on: MDA-MB-231 breast
PC-3 prostate = tested on: PC-3 prostate
EKVX NSCLC = tested on: EKVX NSCLC
A498 renal = tested on: A498 renal
CCRF-CEM leukemia = tested on: CCRF-CEM leukemia
HOP-92 NSCLC = tested on: HOP-92 NSCLC
UACC-257 melanoma = tested on: UACC-257 melanoma
TK-10 renal = tested on: TK-10 renal
DU-145 prostate = tested on: DU-145 prostate
MALME-3M melanoma = tested on: MALME-3M melanoma
KM12 colon = tested on: KM12 colon
SK-MEL-2 melanoma = tested on: SK-MEL-2 melanoma

## Cc1ccc(S(=O)(=O)Cc2nc(-c3ccc(C(=O)NCc4cccnc4)cc3)oc2C)cc1
SF-295 CNS
  GI50: 14.1 nM
  TGI: 28 nM
HL-60(TB) leukemia
  GI50: < 10 nM
  TGI: < 10 nM
NCI-H226 lung
  GI50: 119 nM
  TGI: 602 nM
NCI-H522 lung
  GI50: < 10 nM
  TGI: < 10 nM
U251 glioblastoma
  GI50: < 10 nM
  TGI: < 10 nM
OVCAR-5 ovarian
  GI50: < 10 nM
  TGI: < 10 nM
SF-268 CNS
  GI50: < 10 nM
  TGI: 12.9 nM
MCF7 breast
  GI50: 14.2 nM
  TGI: 29.1 nM
NCI/ADR-RES ovarian
  GI50: 15.2 nM
  TGI: 29.4 nM
CAKI-1 renal
  GI50: < 10 nM
  TGI: 15.5 nM
MOLT-4 leukemia
  GI50: < 10 nM
  TGI: < 10 nM
SR leukemia
  GI50: 18.1 nM
  TGI: 33.3 nM
OVCAR-4 ovarian
  GI50: 19.3 nM
  TGI: 39.6 nM
MDA-MB-468 breast
  GI50: 11.8 nM
  TGI: 26.1 nM
MDA-MB-435 melanoma
  GI50: 13.2 nM
  TGI: 26.1 nM
HCC-2998 colon
  GI50: < 10 nM
  TGI: < 10 nM
SK-MEL-5 melanoma
  GI50: < 10 nM
  TGI: 20.8 nM
LOX IMVI melanoma
  GI50: 17.1 nM
  TGI: 78.7 nM
NCI-H322M lung
  GI50: < 10 nM
  TGI: < 10 nM
UO-31 renal
  GI50: < 10 nM
  TGI: < 10 nM
NCI-H460 NSCLC
  GI50: 21.6 nM
  TGI: 47.3 nM
ACHN renal
  GI50: 12.5 nM
  TGI: 28.7 nM
T-47D breast
  GI50: < 10 nM
  TGI: < 10 nM
IGROV1 ovarian
  GI50: 11.2 nM
  TGI: 23.7 nM
RPMI-8226 leukemia
  GI50: < 10 nM
  TGI: < 10 nM
SF-539 CNS
  GI50: < 10 nM
  TGI: < 10 nM
BT-549 breast
  GI50: 17.9 nM
  TGI: 32.7 nM
HS 578T breast
  GI50: < 10 nM
  TGI: < 10 nM
SW-620 colon
  GI50: < 10 nM
  TGI: < 10 nM
HCT-116 colon
  GI50: < 10 nM
  TGI: < 10 nM
COLO 205 colon
  GI50: < 10 nM
  TGI: < 10 nM
UACC-62 melanoma
  GI50: 16.5 nM
  TGI: 34.5 nM
SNB-19 CNS
  GI50: < 10 nM
  TGI: < 10 nM
HOP-62 NSCLC
  GI50: < 10 nM
  TGI: 11.9 nM
A549 NSCLC
  GI50: 19.4 nM
  TGI: 41.9 nM
MDA-MB-231 breast
  GI50: 39.4 nM
  TGI: 149 nM
PC-3 prostate
  GI50: < 10 nM
  TGI: < 10 nM
EKVX NSCLC
  GI50: < 10 nM
  TGI: 25.1 nM
A498 renal
  GI50: 56.9 nM
  TGI: 691 nM
CCRF-CEM leukemia
  GI50: < 10 nM
  TGI: < 10 nM
HOP-92 NSCLC
  GI50: 22 nM
  TGI: 52.6 nM
UACC-257 melanoma
  GI50: 27.5 nM
  TGI: 59.6 nM
TK-10 renal
  GI50: 19.1 nM
  TGI: 35.7 nM
DU-145 prostate
  GI50: 15.9 nM
  TGI: 30.8 nM
MALME-3M melanoma
  GI50: 19.1 nM
  TGI: 43.8 nM
KM12 colon
  GI50: < 10 nM
  TGI: 11.9 nM
SK-MEL-2 melanoma
  GI50: < 10 nM
  TGI: < 10 nM
